Here are results for 88 molecules from a melting point compilation (Tetko et al.; mined from patent text by program, amines drawn as free bases though some values may be those of a salt).

SMILES strings stand for the structures.

Broadly, the melting point is the temperature, or range, at which the solid turns liquid. `Cc1ccc(-n2c(=O)c(O)nc3cccnc32)cc1` returned a melting point greater than 300 °C.

On to `CCOc1ccc2c(c1)n(C1CCCCC1)c(=O)n2Cc1ccc([N+](=O)[O-])cc1OC`, for which the melting point worked out at 120 °C.

Consider `Cc1ccc(S(=O)(=O)OCC2CCc3cc(Br)ccc3C2)cc1` (stereo not drawn), for which the melting point lay within 87 to 89 °C.

As for `O=C1N[C@H](Cc2ccc(C(F)(F)F)cc2)[C@H](c2cccc(F)c2)O1` (racemic), the melting point lay within 143 to 144 °C.

In turn, `CCOC(=O)C(C#N)=NC=C(N)c1ccccc1` showed a melting point of 139 to 140 °C.

For the molecule `CC(C)CNCC(O)c1cc(C(F)(F)F)nc2c(C(F)(F)F)cccc12` (stereo not drawn), the melting point worked out at 132 °C.

`COc1cc2c(cn1)OCC21C(=O)N(CC2CCOCC2)c2ccccc21` (stereo not drawn) came in with a melting point of 84 to 85 °C.

As for `O=c1[nH]c2ccc(S(=O)CCN3CCC(Cc4ccccc4)CC3)cc2o1` (stereo not drawn), the melting point lay within 176 to 178 °C.

The molecule `COCn1c(=O)n(-c2ccc3c(c2)OCO3)c2ncccc21` registered a melting point of 152 to 153 °C.

Molecule `CCN(CC)c1ccc(-c2cc(-c3ccc(C(=O)O)cc3)ccc2OCC(C)O)cc1C(C)(C)C` (stereo not drawn) showed a melting point of 193 °C.

Take `C=CCN(CC=C)CCCCC(=O)c1ccc2c(c1)Cc1cc(C(=O)CCCCN(CC=C)CC=C)ccc1O2`: the melting point fell in the range of 54 to 55 °C.

In turn, `COc1cc(C(C)=O)cc(N)c1OC` registered a melting point of 63 to 65 °C.

With `CC(=O)ON(C)C(=O)CCc1cc(-c2ccc(Cl)cc2)n(-c2nc3c(Cl)cccc3s2)n1`, the melting point is 159 to 160 °C.

On to `C=CCc1cc(CC(=O)O)ccc1OCc1ccc2ccccc2n1`, for which the melting point came out at 130 °C.

In the case of `CCCN(CCC)CCCn1cc(Br)c2c3c(c(-c4ccccc4Cl)cc21)C(=O)NC3=O`, the melting point lay within 173 to 175 °C.

In turn, `CONC(=O)c1ccccc1NC(=O)Cc1cccc(Br)c1` had a melting point of 166 °C.

Turning to `COc1ccccc1C(=O)c1sc(Nc2cccnc2)nc1N`, the melting point lay within 245 to 246 °C.

Take `COC(=O)c1ccc(OCCNC(=O)C2Cc3ccccc3N2S(=O)(=O)c2ccc(-c3ccc(F)cc3)cc2)cc1C(F)(F)F` (stereo not drawn): the melting point is 62 to 70 °C.

The molecule `CCN(CC)C(C)COc1ccc(NC(=O)C#Cc2ccc(Cl)cc2Cl)cc1` (stereo not drawn) gave a melting point of 70 to 72 °C.

As to `CC1(C)[C@H](Cl)CC[C@]2(CI)OC(=O)C[C@H]12`, the melting point lay within 127 to 128 °C.

Regarding `CCC1(CCCCCl)C(=O)Nc2c(C)cccc21` (stereo not drawn), the melting point was 112 to 113 °C.

Molecule `O=C(NCc1ccccn1)Nc1cc(NC(=O)c2ccccn2)ccn1` returned a melting point of 206 to 207 °C.

On to `O=CC=Cc1cnc(-c2ccccc2)s1`, for which the melting point is 104 °C.

On to `CC(O)c1cc(C(C)O)cc(S(N)(=O)=O)c1` (stereo not drawn), for which the melting point is 175 to 177 °C.

For the molecule `O=C(NCCOc1ccc(CC(Oc2ccccc2)C(=O)O)cc1[N+](=O)[O-])c1ccc(-c2ccccn2)cc1` (stereo not drawn), the melting point was 178 to 179 °C.

Regarding `CC(C)SC(=O)CCS(=O)(=O)C(C)C`, the melting point lay within 45 to 47 °C.

Turning to `CN1C=CCC2C1N2S(=O)(=O)c1ccc(N)cc1` (stereo not drawn), the melting point lay within 188 to 190 °C.

On to `CCOC(=O)c1cn(CC)c2nc(N3CCC(NC(C)=O)C3)c(F)cc2c1=O` (stereo not drawn), for which the melting point lay in the range of 266 to 269 °C.

Regarding `CC(=O)NC(Cc1ccccc1)C(=O)Nc1c(C(C)C)cccc1C(C)C` (stereo not drawn), the melting point is 228 to 229 °C.

Molecule `Cc1ccc(N(C)S(=O)(=O)c2cccs2)c2[nH]c(C3=NCC(CC(N)=O)S3)cc12` (stereo not drawn) yielded a melting point of 120 to 121 °C.

The molecule `COc1ccccc1NC(=O)Nc1nc(Oc2ccc3ccccc3c2)nc(N(CCC(=O)O)Cc2ccc(C)cc2)n1` returned a melting point of 202 to 205 °C.

`CC(C)C(NC(=O)Cn1cc(Cc2ccccc2)cc(NC(=O)OCc2ccccc2)c1=O)C(=O)C(F)(F)F` (stereo not drawn) showed a melting point of 58 to 64 °C.

The molecule `Cc1cc2c(-c3ccccc3)c(C=O)n(C)c(=O)c2cc1C` returned a melting point of 178 to 179 °C.

As for `Cc1oc(-c2ccccc2)nc1CCc1nc(COc2ccccc2CC(=O)O)co1`, the melting point was in the range of 109 to 110 °C.

`CC(C)N(C)C(=O)COc1cc(-c2ccccc2)nc2ccccc12` registered a melting point of 80 °C.

`CSc1nn2c(O)cc(CN3CCN(C)CC3)nc2c1S(=O)(=O)c1ccccc1` yielded a melting point greater than 220 °C.

The molecule `COCc1nc2c(C(F)(F)F)cccc2c(=O)o1` yielded a melting point of 104 to 106 °C.

`CCOC(=O)c1nc2cc(NC(=O)c3c(C(=O)N4CCC4)cnn3C)ccn2n1` displayed a melting point of 252 to 255 °C.

With `COCOc1cc(OC)c(OCOC)c(CCCCCc2c(OC)c(OCOC)c(C)c(OC)c2OCOC)c1OC`, the melting point fell in the range of 76 to 77 °C.

The molecule `COc1cccc(CC(NC(=O)CCl)c2ccccc2)c1` (stereo not drawn) displayed a melting point of 104 to 105 °C.

In turn, `Clc1nc(NCc2ccc3c(c2)OCO3)c2c3c(sc2n1)CCCC3` came in with a melting point of 222 °C.

The molecule `CCCc1nn(-c2ccc(C(F)(F)F)cn2)cc1CCCOc1cccc(CCC(=O)O)c1` gave a melting point of 97 to 98 °C.

On to `CC(C)(Oc1ccc(CC(=O)Nc2ccc(F)cc2)cc1)C(=O)O`, for which the melting point came out at 198 °C.

As to `COc1cc(N2CCN(Cc3ccccc3)CC2)c2ncccc2c1C`, the melting point is 129 to 133 °C.

`CC(=O)OCCn1c(=O)oc(=O)c2ccccc21`: the melting point is 128 to 131 °C.

`Cc1cccc(-c2[nH]c(C(C)C)nc2-c2ccc(F)c(-c3ccc(C(=O)NN4CCOCC4)cc3)c2)n1` registered a melting point of 153 to 155 °C.

Consider `CN1C(=O)CN(N=Cc2ccccc2)C(c2ccccc2)c2cc(Cl)ccc21` (stereo not drawn), for which the melting point was 157 to 158 °C.

With `C=CCN1C2CCC3C1CCC2N3C(c1ccc(C(=O)N2CCCC2)cc1)c1cccc(O)c1` (stereo not drawn), the melting point lay within 140 to 142 °C.

Regarding `CC(CO)(CO)NS(=O)(=O)c1cccc([N+](=O)[O-])c1`, the melting point worked out at 116 °C.

In turn, `CCCNC(=Nc1ccccc1N1CCOCC1)NCCC` yielded a melting point of 212 to 214 °C.

For the molecule `FC(F)(F)c1ccc(/C=C/c2nc(COc3cccc(CCCn4ccnn4)c3)co2)cc1`, the melting point is 115 to 116 °C.

Molecule `O=C(COc1cc(-c2cccc(Cl)c2)nc2ccccc12)N1CCOCC1` yielded a melting point of 131 °C.

Molecule `Nc1ccccc1-c1cnoc1` registered a melting point of 48 to 51 °C.

In turn, `CNC(=O)C(Cc1ccc(OC)cc1)NC(=O)C(CC(C)C)C(CC(=O)OC)SC(C)=O` (stereo not drawn) registered a melting point of 118 to 135 °C.

In the case of `CCCCCCCCCCCCCCCCCCNC(=O)OC(=O)CCCCCCCCCCCCCCCCC`, the melting point came to 84 °C.

Consider `COc1cc(O)c(C=O)cc1Br`, for which the melting point was in the range of 63 to 64 °C.

As to `COc1cc2c(Nc3ccc(C)c(OC(C)=O)c3)ncnc2cc1OCc1ccncc1`, the melting point lay within 201 to 202 °C.

In turn, `COC(=O)CCC(=O)Nc1cccc(OCc2cc3ccccc3o2)c1` returned a melting point of 112 to 113 °C.

Regarding `NC(=O)c1[nH]c2ccccc2c1-c1ccc(NC(=O)Nc2ccccc2)cc1`, the melting point was 232 to 234 °C.

The molecule `Cc1noc(NS(=O)(=O)c2cccc3c(NC(C)C)cccc23)c1C` gave a melting point of 156 to 159 °C.

`CCCCc1[nH]c(=O)c(C#N)cc1C(C)=O` returned a melting point of 195 to 197 °C.

Turning to `N#CCCCOc1ccc(-c2nnc(CSCCOc3ccccc3)o2)cc1`, the melting point fell in the range of 67 to 68 °C.

`Cc1cc(-c2ccc(Cl)cc2)cn2c(-c3nc(-c4ccc(S(N)(=O)=O)s4)no3)cnc12` came in with a melting point of 271 °C.

The molecule `NNC(=O)OCC1c2ccccc2-c2ccccc21` gave a melting point of 150 to 153 °C.

As to `Cc1nn(C)c2c1N=CN1CC(C)N=C21` (stereo not drawn), the melting point was 115 to 117 °C.

Molecule `CCCN1CCC(=O)C(C(c2ccccc2)c2ccccc2)C1` (stereo not drawn) registered a melting point of 72 to 76 °C.

Consider `CON=C1CCCCC1n1nc(-c2c(-c3ccccc3)nn3ccccc23)ccc1=O` (stereo not drawn), for which the melting point lay in the range of 85 to 87 °C.

With `COc1ccc2c(C(=O)O)cccc2c1`, the melting point is 180 °C.

For `CCn1ncc(C(=O)c2ccc(S(C)(=O)=O)c(N3CCOC(=O)C3)c2Cl)c1O`, the melting point was in the range of 198 to 202 °C.

`CNc1nc(C)c(-c2nc3ccccc3c(=O)n2-c2ccccc2C)s1` had a melting point of 218 to 220 °C.

Molecule `C[Si](C)(C)c1cccc(I)c1C(=O)NC1CC1` yielded a melting point of 162 to 164 °C.

In turn, `CCC(CC)(CO)NC(=S)NC(=O)c1ccccc1` returned a melting point of 161 to 163 °C.

For the molecule `CC(C(=O)c1ccc(O)cc1)N1CCC(O)(c2ccccc2)CC1` (stereo not drawn), the melting point lay in the range of 95 to 97 °C.

On to `O=C(NC1C(=O)N(CC2C3CC4CC(C3)CC2C4)c2ccccc2N(c2ccccc2)C1=O)Oc1ccccc1` (stereo not drawn), for which the melting point is 167 to 168 °C.

In turn, `CCCOc1cccc(-c2nc(=O)c3ccccc3s2)n1` yielded a melting point of 138 to 140 °C.

`O=C(O)c1cccc2c1CCc1ccccc1C2=O` showed a melting point of 188 to 189 °C.

In the case of `N#Cc1cc(C(=O)NN2CCOCC2)ccc1OCC(=O)Nc1ccc(Cl)cn1`, the melting point is 165 to 167 °C.

`CCCNC(=O)c1ccc2c(c1)C(=O)NC(C(Cl)(Cl)Cl)O2` (stereo not drawn) registered a melting point of 228 to 230 °C.

Molecule `NC1=C2C(=Nc3ccccc3S2(=O)=O)c2ccccc2C1=O` returned a melting point of 264 to 266 °C.

`O=C(Nc1cccc(-n2ccnc2)c1)c1ccn(-c2ccccc2)c1` came in with a melting point of 100 to 103 °C.

In turn, `CCn1cc(C(=O)NC2Cc3ccccc3C2)c(=O)c2cnc(N3CCCC3)nc21` had a melting point of 252 to 253 °C.

`CC(=O)N1CCO[C@@H]2c3ccccc3OCC[C@H]21` (relative stereo): the melting point was in the range of 97 to 98 °C.

Take `CCCC(=O)c1cnc2c(C)cccc2c1Nc1ccccc1Cl`: the melting point lay in the range of 130 to 131 °C.

In turn, `CN(C)c1cccc(S(=O)Nc2ccccc2)c1` (stereo not drawn) had a melting point of 86 to 87 °C.

In turn, `O=C(Nc1c[nH]nc1C(=O)NCCC(F)(F)F)c1ccccn1` had a melting point of 241 to 243 °C.

Consider `CCOC(=O)N1Cc2ccccc2C2(Cc3ccccc3O2)C1` (stereo not drawn), for which the melting point lay in the range of 65 to 75 °C.

In turn, `CCCCCOc1ccc2c(c1)C=C(CNC(=O)CCC)CO2` showed a melting point of 90 °C.

As for `CCOC1C(NC(=O)C(F)(F)F)CC(OC(=O)c2ccc([N+](=O)[O-])cc2)OC1C` (stereo not drawn), the melting point was 148 to 150 °C.
